Measured values published in patent US12384808B2, “Modulators of TNF-α activity” (Forward Therapeutics, Inc., priority 2022, dated 2025).

The compounds below were run against TNFα (Homo sapiens, UniProt P01375) (assay: TNFα Induced HEK Blue Cellular Assay). Settings: HEK Blue TNFα reporter cells, TNFα 100 pg/ml, 24 hrs at 37° C., secreted alkaline phosphatase (QUANTI-Blue) read at 620 nm; read-out: IC50 value.
Assay type: cell-based
Method: TNFα Induced HEK Blue Cellular Assay
Test articles were diluted in DMSO and serially diluted into 384 well assay plate (Corning 3765), at final concentrations ranging from […] to 0.5 nM. HEK Blue™ TNFα reporter cells were added at a final density of 10,000 cell per well in assay media [DMEM (Gibco, cat #21063-029), 10% fetal bovine serum (ExcelBio, cat #FND500), 1% Penicillin-Streptomycin (Solarbio, cat #P1400-100]. TNFα (R&D 210-TA-020/CF) was then added to the assay plate at a final concentration of 100 pg/ml. This plate was then incubated for 24 hrs at 37° C. and 5% CO2. Secreted alkaline phosphatase expression was then measured using QUANTI-Blue™ (Invivogen), according to manufacturer instructions and read on an Envision microplate reader at 620 nm.
Inhibition data for test compound over a range of concentration was plotted as percentage inhibition of the test compound (100%=maximum inhibition). IC50 values were determined after correcting for background [(sample read−mean of low control)/(mean of high control−mean of low control)] where by the low control is DMSO without stimulation and high control is DMSO with stimulation. The IC50 is defined as the concentration of test compound which produces 50% inhibition and was quantified using the 4 parameter logistic equation to fit the data.

Chain of TNFα (P01375 77-233 limits assumed): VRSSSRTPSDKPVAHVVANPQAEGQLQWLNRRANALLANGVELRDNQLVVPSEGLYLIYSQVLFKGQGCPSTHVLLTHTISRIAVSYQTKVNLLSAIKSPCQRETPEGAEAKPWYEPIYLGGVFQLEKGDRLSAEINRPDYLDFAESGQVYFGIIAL

SMILES	IC50
CP(C)(=O)c1ccc(-c2ccc3nc4n(c3c2)[C@@H]2C[C@H]4NC(=O)c3cccc(OC(F)F)c32)c(F)c1 [Example 31, (1R,11R)-18-(difluoromethoxy)-5-[4-(dimethylphosphoryl)-2-fluorophenyl]-2,9,12-triazapentacyclo[9.8.1.0^{2,10}.0^{3,8}.0^{14,19}]icosa-3(8),4,6,9,14(19),15,17-heptaen-13-one]	< 100 nM
Cc1cc(P(C)(C)=O)ccc1-c1ccc2nc3n(c2c1)[C@@H]1C[C@H]3NC(=O)c2cccc(OC(F)F)c21 [Example 32, (1R,11R)-18-(difluoromethoxy)-5-[4-(dimethylphosphoryl)-2-methylphenyl]-2,9,12-triazapentacyclo[9.8.1.0^{2,10}.0^{3,8}.0^{14,19}]icosa-3(8),4,6,9,14(19),15,17-heptaen-13-one]	< 100 nM
CN1C(=O)c2cccc(OC(F)F)c2[C@H]2C[C@@H]1c1nc3ccc(-c4ccc(CP(C)(C)=O)cc4)cc3n12 [Example 33, (1R,11R)-18-(difluoromethoxy)-5-{4-[(dimethylphosphoryl)methyl]phenyl}-12-methyl-2,9,12-triazapentacyclo[9.8.1.0^{2,10}.0^{3,8}.0^{14,19}]icosa-3(8),4,6,9,14(19),15,17-heptaen-13-one]	< 100 nM
CP(C)(=O)c1ccc(-c2ccc3nc4n(c3c2)[C@@H]2C[C@H]4NC(=O)c3cccc(OC(F)F)c32)c(F)c1F [Example 34, (1R,11R)-18-(difluoromethoxy)-5-[4-(dimethylphosphoryl)-2,3-difluorophenyl]-2,9,12-triazapentacyclo[9.8.1.0^{2,10}.0^{3,8}.0^{14,19}]icosa-3(8),4,6,9,14(19),15,17-heptaen-13-one]	< 100 nM
CP(C)(=O)c1c(F)cc(-c2ccc3nc4n(c3c2)[C@@H]2C[C@H]4NC(=O)c3cccc(OC(F)F)c32)cc1F [Example 35, (1R,11R)-18-(difluoromethoxy)-5-[4-(dimethylphosphoryl)-3,5-difluorophenyl]-2,9,12-triazapentacyclo[9.8.1.0^{2,10}.0^{3,8}.0^{14,19}]icosa-3(8),4,6,9,14(19),15,17-heptaen-13-one]	100 to 1000 nM
CN1C(=O)c2cccc(OC(F)F)c2[C@H]2C[C@@H]1c1nc3ccc(-c4ccc(P(C)(C)=O)c(F)c4F)cc3n12 [Example 36, (1R,11R)-18-(difluoromethoxy)-5-[4-(dimethylphosphoryl)-2,3-difluorophenyl]-12-methyl-2,9,12-triazapentacyclo[9.8.1.0^{2,10}.0^{3,8}.0^{14,19}]icosa-3(8),4,6,9,14(19),15,17-heptaen-13-one]	< 100 nM

Next, values leading:

IC50	SMILES
< 100 nM	CN1C(=O)c2cccc(OC(F)F)c2[C@H]2C[C@@H]1c1nc3ccc(-c4cc(F)c(P(C)(C)=O)c(F)c4)cc3n12 [Example 37, (1R,11R)-18-(difluoromethoxy)-5-[4-(dimethylphosphoryl)-3,5-difluorophenyl]-12-methyl-2,9,12-triazapentacyclo[9.8.1.0^{2,10}.0^{3,8}.0^{14,19}]icosa-3(8),4,6,9,14(19),15,17-heptaen-13-one]
< 100 nM	CN1C(=O)c2cccc(OC(F)F)c2[C@H]2C[C@@H]1c1nc3ccc(-c4ccc(OCP(C)(C)=O)cc4)cc3n12 [Example 38, (1R,11R)-18-(difluoromethoxy)-5-{4-[(dimethylphosphoryl)methoxy]phenyl}-12-methyl-2,9,12-triazapentacyclo[9.8.1.0^{2,10}.0^{3,8}.0^{14,19}]icosa-3(8),4,6,9,14(19),15,17-heptaen-13-one]
< 100 nM	CN1C(=O)c2cccc(OC(F)F)c2[C@H]2C[C@@H]1c1nc3ccc(-c4ccc(OCCP(C)(C)=O)nc4)cc3n12 [Example 39, (1R,11R)-18-(difluoromethoxy)-5-{6-[2-(dimethylphosphoryl)ethoxy]pyridin-3-yl}-12-methyl-2,9,12-triazapentacyclo[9.8.1.0^{2,10}.0^{3,8}.0^{14,19}]icosa-3(8),4,6,9,14(19),15,17-heptaen-13-one]
